Laboratory results published in patent US11926613B2, “Kinase inhibitors for the treatment of central and peripheral nervous system disorders” (UNIVERSITY OF MIAMI, priority 2017, dated 2024).

Assays:
[1] = tested on: neurons from hippocampi of E18 rat embryos; test: Neurite growth length (% NTL) in cultured E18 rat hippocampal neurons, 9-point dose response, 48 hours; format: cell-based; settings: Rattus norvegicus, Neuron, 48 h; for activity at 0.078 µM: 78 nM; for activity at 0.156 µM: 156 nM; for activity at 0.312 µM: 312 nM; for activity at 0.625 µM: 625 nM
How it was run: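 % NTL comes from automated neurite tracing of βIII-tubulin-stained cells, with 200–300 or more neurons per condition. Compounds were given in a 9-point dilution series (20 μM to 0.078125 μM) for 48 h. Cells were trypsin-dissociated E18 rat hippocampal neurons plated at 1500/well on poly-D-lysine.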

[2] = tested on: Primary Neurons; test: HCS neurite outgrowth assay (High Content Screening with Primary Neurons); format: cell-based; settings: Primary neuron

Structure (SMILES) | activity at 0.078 µM [1] [%] | activity at 0.156 µM [1] [%] | activity at 0.312 µM [1] [%] | activity at 0.625 µM [1] [%] | activity at 1.25 µM [1] [%] | activity at 2.5 µM [1] [%] | activity at 5 µM [1] [%] | activity at 10 µM [1] [%] | activity at 20 µM [1] [%] | EC50 [2] [µM]
COc1ccc(O)c(C(=O)c2ccc(C(=O)N[C@@H]3CNC[C@H]3NC(=O)c3ccnc(N)n3)cc2)c1F [Example A36, 2-amino-N-[(3R,4R)-4-[4-(2-fluoro-6-hydroxy-3-methoxybenzoyl)benzamido]pyrrolidin-3-yl]pyrimidine-4-carboxamide] | 116 | 126 | 131 | 149 | 239 | 358 | 516 | 480 | 470 | 1.83
COc1ccc(O)c(C(=O)c2ccc(C(=O)N[C@@H]3CNC[C@H]3NC(=O)c3ccc(O)cc3)cc2)c1F [Example A37, N-[(3R,4R)-4-[4-(2-fluoro-6-hydroxy-3-methoxybenzoyl)benzamido]pyrrolidin-3-yl]-4-hydroxybenzamide] | 100 | 109 | 113 | 107 | 113 | 124 | 132 | 155 | 212 | > 20
COc1ccc(O)c(C(=O)c2ccc(C(=O)N[C@@H]3CNC[C@H]3NC(=O)c3cccnc3)cc2)c1F [Example A38, N-[(3R,4R)-4-[4-(2-fluoro-6-hydroxy-3-methoxybenzoyl)benzamido]pyrrolidin-3-yl]pyridine-3-carboxamide] | 108 | 102 | 103 | 96.6 | 100 | 100 | 106 | 100 | 87.7 | 3.15
COc1ccc(O)c(C(=O)c2ccc(C(=O)N[C@@H]3CNC[C@H]3NC(=O)c3ccc(O)nc3)cc2)c1F [Example A39, N-[(3R,4R)-4-[4-(2-fluoro-6-hydroxy-3-methoxybenzoyl)benzamido]pyrrolidin-3-yl]-6-hydroxypyridine-3-carboxamide] | 96.3 | 93 | 85.5 | 80.5 | 83 | 87.3 | 98 | 98.9 | 101 | 3.76
COc1ccc(O)c(C(=O)c2ccc(C(=O)N[C@@H]3CNC[C@H]3NC(=O)c3ccnc(O)c3)cc2)c1F [Example A40, N-[(3R,4R)-4-[4-(2-fluoro-6-hydroxy-3-methoxybenzoyl)benzamido]pyrrolidin-3-yl]-2-hydroxypyridine-4-carboxamide] | 86.3 | 91.2 | 86.2 | 86.2 | 94.1 | 108 | 101 | 106 | 121 | 9.62
COc1ccc(O)c(C(=O)c2ccc(C(=O)N[C@@H]3CNC[C@H]3NC(=O)c3ccncn3)cc2)c1F [Example A41, N-[(3R,4R)-4-[4-(2-fluoro-6-hydroxy-3-methoxybenzoyl)benzamido]pyrrolidin-3-yl]pyrimidine-4-carboxamide] | 91.3 | 88.5 | 86.2 | 87 | 95.9 | 102 | 124 | 152 | 190 | 11
COc1ccc(O)c(C(=O)c2ccc(C(=O)N[C@@H]3CNC[C@H]3NC(=O)c3ccc4[nH]ncc4c3)cc2)c1F [Example A42, N-[(3R,4R)-4-[4-(2-fluoro-6-hydroxy-3-methoxybenzoyl)benzamido]pyrrolidin-3-yl]-1H-indazole-5-carboxamide] | 115 | 110 | 126 | 118 | 169 | 255 | 403 | 431 | 369 | 2.45
COc1ccc(O)c(C(=O)c2ccc(C(=O)N[C@@H]3CNC[C@H]3NC(=O)c3cn[nH]c3)cc2)c1F [Example A43, N-[(3R,4R)-4-[4-(2-fluoro-6-hydroxy-3-methoxybenzoyl)benzamido]pyrrolidin-3-yl]-1H-pyrazole-4-carboxamide] | 118 | 118 | 115 | 114 | 124 | 136 | 144 | 155 | 173 | 3.11
COc1ccc(O)c(C(O)c2ccc(C(=O)N[C@@H]3CNC[C@H]3NC(=O)c3ccnc(N)n3)cc2)c1F (stereo partly drawn) [Example A44, 2-amino-N-[(3R,4R)-4-{4-[(2-fluoro-6-hydroxy-3-methoxyphenyl)(hydroxy)methyl]benzamido}pyrrolidin-3-yl]pyrimidine-4-carboxamide] | 94 | 87.1 | 78.8 | 76.4 | 99.4 | 96.2 | 104 | 103 | 105 | 2.05
COc1ccc(O)c(Cc2ccc(C(=O)N[C@@H]3CNC[C@H]3NC(=O)c3ccnc(N)n3)cc2)c1F [Example A45, 2-amino-N-[(3R,4R)-4-{4-[(2-fluoro-6-hydroxy-3-methoxyphenyl)methyl]benzamido}pyrrolidin-3-yl]pyrimidine-4-carboxamide] | 96.5 | 90.2 | 83.7 | 87 | 84.8 | 93.3 | 89.1 | 97.2 | 111 | > 20
COc1ccc(O)c(C(=O)c2ccc(C(=O)N[C@@H]3CNC[C@H]3NC(=O)Cc3cccnc3)cc2)c1F [Example A46, 4-(2-fluoro-6-hydroxy-3-methoxybenzoyl)-N-[(3R,4R)-4-[2-(pyridin-3-yl)acetamido]pyrrolidin-3-yl]benzamide] | 95.6 | 95 | 90.8 | 77.5 | 93.1 | 86.8 | 88.1 | 100 | 90.2 | 1.65
COc1ccc(O)c(C(=O)c2ccc(C(=O)N[C@@H]3CNC[C@H]3NC(=O)Cc3cn[nH]c3)cc2)c1F [Example A47, 4-(2-fluoro-6-hydroxy-3-methoxybenzoyl)-N-[(3R,4R)-4-[2-(1H-pyrazol-4-yl)acetamido]pyrrolidin-3-yl]benzamide] | 100 | 99.3 | 99.7 | 96.8 | 104 | 112 | 122 | 128 | 162 | 7.43
COc1ccc(O)c(C(=O)c2ccc(C(=O)N[C@@H]3CNC[C@H]3NC(=O)c3ccnc4[nH]cnc34)cc2)c1F [Example A48, N-[(3R,4R)-4-[4-(2-fluoro-6-hydroxy-3-methoxybenzoyl)benzamido]pyrrolidin-3-yl]-3H-imidazo[4,5-b]pyridine-7-carboxamide] | 109 | 117 | 116 | 120 | 144 | 219 | 332 | 461 | 421 | 6.08
O=C(N[C@@H]1CNC[C@H]1NC(=O)c1ccc2[nH]ncc2c1)c1ccc(C(=O)c2c(O)cccc2F)cc1 [Example A49, N-[(3R,4R)-4-[4-(2-fluoro-6-hydroxybenzoyl)benzamido]pyrrolidin-3-yl]-1H-indazole-5-carboxamide] | 107 | 99.5 | 101 | 112 | 139 | 200 | 298 | 322 | 207 | 2.46
Nc1nccc(C(=O)N[C@@H]2CNC[C@H]2NC(=O)c2ccc(C(=O)c3c(O)cccc3F)cc2)n1 [Example A50, 2-amino-N-[(3R,4R)-4-[4-(2-fluoro-6-hydroxybenzoyl)benzamido]pyrrolidin-3-yl]pyrimidine-4-carboxamide] | 113 | 113 | 118 | 136 | 194 | 285 | 431 | 561 | 457 | 3.6
O=C(N[C@@H]1CNC[C@H]1NC(=O)c1ccc(C(=O)c2c(O)cccc2F)cc1)c1ccncc1 [Example A51, N-[(3R,4R)-4-[4-(2-fluoro-6-hydroxybenzoyl)benzamido]pyrrolidin-3-yl]pyridine-4-carboxamide] | 129 | 129 | 135 | 158 | 191 | 260 | 362 | 506 | 421 | 4.9
